Assay: Solubility with respect to water at room temperature
Format: physicochemical
Conditions: lithium salt
In the case of `Nc1c(N=Nc2ccc3c(O)c(N=Nc4ccc(N=Nc5ccc(S(=O)(=O)O)cc5)cc4S(=O)(=O)O)c(S(=O)(=O)O)cc3c2S(=O)(=O)O)cc(S(=O)(=O)O)c2cc(S(=O)(=O)O)c(N=Nc3ccc([N+](=O)[O-])cc3S(=O)(=O)O)c(O)c12` [Compound 1], the solubility is reported as ≥ 100 mg/mL.
With `Nc1c(N=Nc2ccc3c(O)c(N=Nc4ccc(N=Nc5ccc(S(=O)(=O)O)cc5)cc4S(=O)(=O)O)c(S(=O)(=O)O)cc3c2S(=O)(=O)O)cc(S(=O)(=O)O)c2cc(S(=O)(=O)O)c(N=Nc3ccc(S(=O)(=O)O)cc3[N+](=O)[O-])c(O)c12` [Compound 3] the solubility was ≥ 100 mg/mL.
With `Cc1cc(N=Nc2c(S(=O)(=O)O)cc3c(S(=O)(=O)O)c(N=Nc4cc(S(=O)(=O)O)c5cc(S(=O)(=O)O)c(N=Nc6ccc([N+](=O)[O-])cc6S(=O)(=O)O)c(O)c5c4N)ccc3c2O)c(OCCCS(=O)(=O)O)cc1N=Nc1ccc([N+](=O)[O-])cc1S(=O)(=O)O` [Compound 16] the solubility was ≥ 100 mg/mL.

Source: patent US20140299020A1, “WATER-BASED BLACK INK COMPOSITION, INKJET RECORDING METHOD USING SAME, AND COLORED BODY” (NIPPON KAYAKU KABUSHIKI KAISHA, priority 2011, published 2014)
